The supplement of paper PMC12463676, “Small-molecule dissolution of stress granules by redox modulation benefits ALS models” (Nature Chemical Biology, 2025)

Key:
lipoamide = compound: NC(=O)CCCCC1CCSS1 [lipoamide]; assay: thermal stability z-score vs DMSO; higher = more thermally stabilized by treatment; conditions: HeLa, lipoamide concentration 100 µM
Method: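 Cellular thermal proteome profiling in HeLa cells. Cells were treated with 100 µM lipoamide for 1 h, with or without 1 mM arsenate for a further 1 h, then heated to ten temperatures (37-66.3 °C), and soluble protein was quantified by TMT mass spectrometry relative to 0.1% DMSO controls. The thermal stability score (sum of log2 fold changes minus the abundance score) was transformed to a z-score; mean of n = 3 experiments.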

potassium arsenate = compound: O=[As]([O-])(O)O.[K+] [potassium arsenate]; assay: as above; conditions: HeLa; arsenate concentration 1 mM
Method: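 Cellular thermal proteome profiling in HeLa cells treated with 1 mM arsenate for 1 h (DMSO pretreatment), heated to ten temperatures (37-66.3 °C). Soluble protein was quantified by TMT mass spectrometry relative to DMSO controls; the thermal stability score was transformed to a z-score; mean of n = 3 experiments.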

[1] = arsenate co-treatment: 1 mM arsenate 1 h
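Also: each temperature applied for 3 min, abundance score taken as mean log2 fold change at the two lowest temperatures, z-score obtained by mean subtraction and division by SD.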

PIGO (UniProt Q8TEQ8)
thermal stability z-score (lipoamide; [1]): -1.23
thermal stability z-score (lipoamide; arsenate co-treatment: none): -1.1
thermal stability z-score (potassium arsenate): -0.779

PIGS (UniProt Q96S52)
thermal stability z-score (lipoamide; [1]): -2.47
thermal stability z-score (lipoamide; arsenate co-treatment: none): -2.43
thermal stability z-score (potassium arsenate): 0.44

PIGT (UniProt Q969N2)
thermal stability z-score (lipoamide; [1]): -3.54
thermal stability z-score (lipoamide; arsenate co-treatment: none): -2.49
thermal stability z-score (potassium arsenate): -0.105

PIGU (UniProt Q9H490)
thermal stability z-score (lipoamide; [1]): -0.834
thermal stability z-score (lipoamide; arsenate co-treatment: none): -0.665
thermal stability z-score (potassium arsenate): 0.169

PIH1D1 (UniProt Q9NWS0)
UniProt Q9NWS0, sequence (Q9NWS0 whole entry): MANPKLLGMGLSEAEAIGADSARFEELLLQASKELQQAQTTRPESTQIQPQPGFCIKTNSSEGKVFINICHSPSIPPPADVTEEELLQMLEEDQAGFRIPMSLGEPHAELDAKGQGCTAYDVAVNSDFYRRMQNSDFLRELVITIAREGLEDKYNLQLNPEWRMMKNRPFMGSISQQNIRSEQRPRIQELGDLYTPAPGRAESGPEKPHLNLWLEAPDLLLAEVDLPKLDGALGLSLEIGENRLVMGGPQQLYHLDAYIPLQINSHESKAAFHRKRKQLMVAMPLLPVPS
thermal stability z-score (lipoamide; [1]): 1.07
thermal stability z-score (lipoamide; arsenate co-treatment: none): 0.114
thermal stability z-score (potassium arsenate): 0.538

PIK3C2A (UniProt O00443)
UniProt O00443, sequence (O00443 whole entry): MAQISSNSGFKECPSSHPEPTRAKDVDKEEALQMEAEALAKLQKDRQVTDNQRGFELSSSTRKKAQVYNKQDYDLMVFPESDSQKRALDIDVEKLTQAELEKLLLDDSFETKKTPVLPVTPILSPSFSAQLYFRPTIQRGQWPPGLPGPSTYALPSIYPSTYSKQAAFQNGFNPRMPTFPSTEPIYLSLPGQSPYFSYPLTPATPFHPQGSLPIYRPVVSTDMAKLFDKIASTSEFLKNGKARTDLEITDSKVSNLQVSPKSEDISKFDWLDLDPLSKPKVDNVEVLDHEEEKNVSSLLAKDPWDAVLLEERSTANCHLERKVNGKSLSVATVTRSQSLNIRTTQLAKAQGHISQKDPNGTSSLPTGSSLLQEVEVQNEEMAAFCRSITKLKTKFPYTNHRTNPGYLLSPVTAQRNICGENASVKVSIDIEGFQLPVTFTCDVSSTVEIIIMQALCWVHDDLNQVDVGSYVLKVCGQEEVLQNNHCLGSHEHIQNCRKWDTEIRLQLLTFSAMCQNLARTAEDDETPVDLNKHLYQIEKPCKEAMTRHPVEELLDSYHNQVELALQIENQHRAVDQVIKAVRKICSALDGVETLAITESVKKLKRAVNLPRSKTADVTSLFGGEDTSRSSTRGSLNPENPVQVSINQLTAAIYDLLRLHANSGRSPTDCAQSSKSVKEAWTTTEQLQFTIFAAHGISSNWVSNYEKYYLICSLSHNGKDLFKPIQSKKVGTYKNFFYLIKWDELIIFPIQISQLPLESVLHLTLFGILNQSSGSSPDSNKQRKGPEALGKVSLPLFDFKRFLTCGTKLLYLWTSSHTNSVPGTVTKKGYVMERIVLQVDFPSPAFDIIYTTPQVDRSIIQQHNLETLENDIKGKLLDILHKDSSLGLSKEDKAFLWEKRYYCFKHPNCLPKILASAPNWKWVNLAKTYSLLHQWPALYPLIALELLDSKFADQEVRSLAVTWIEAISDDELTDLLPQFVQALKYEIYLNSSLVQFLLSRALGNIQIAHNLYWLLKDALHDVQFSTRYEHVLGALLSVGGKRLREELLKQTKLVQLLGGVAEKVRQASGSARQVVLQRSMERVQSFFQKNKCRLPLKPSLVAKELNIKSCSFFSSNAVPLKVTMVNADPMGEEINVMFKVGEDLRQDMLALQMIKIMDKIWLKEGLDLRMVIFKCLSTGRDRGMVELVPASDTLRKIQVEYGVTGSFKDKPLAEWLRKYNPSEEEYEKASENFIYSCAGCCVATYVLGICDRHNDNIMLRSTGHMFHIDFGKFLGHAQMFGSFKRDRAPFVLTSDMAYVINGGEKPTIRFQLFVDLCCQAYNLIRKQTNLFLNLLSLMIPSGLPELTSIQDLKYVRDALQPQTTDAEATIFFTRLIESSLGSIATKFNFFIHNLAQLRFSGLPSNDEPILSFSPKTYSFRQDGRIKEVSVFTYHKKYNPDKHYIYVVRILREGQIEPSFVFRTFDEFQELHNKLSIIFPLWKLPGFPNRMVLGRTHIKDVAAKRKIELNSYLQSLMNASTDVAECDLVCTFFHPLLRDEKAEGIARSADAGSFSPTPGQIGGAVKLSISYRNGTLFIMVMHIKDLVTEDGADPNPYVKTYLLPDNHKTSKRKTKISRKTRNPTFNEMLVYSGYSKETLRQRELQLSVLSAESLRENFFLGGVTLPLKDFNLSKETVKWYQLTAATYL
thermal stability z-score (lipoamide; [1]): -0.267
thermal stability z-score (lipoamide; arsenate co-treatment: none): 0.213
thermal stability z-score (potassium arsenate): 0.167

PIK3C2B (UniProt O00750)
thermal stability z-score (lipoamide; [1]): 0.468
thermal stability z-score (lipoamide; arsenate co-treatment: none): 0.832
thermal stability z-score (potassium arsenate): 0.971

PIK3C3 (UniProt Q8NEB9)
thermal stability z-score (lipoamide; [1]): -0.102
thermal stability z-score (lipoamide; arsenate co-treatment: none): -0.206
thermal stability z-score (potassium arsenate): -0.484

PIK3CA (UniProt P42336)
thermal stability z-score (lipoamide; [1]): -0.275
thermal stability z-score (lipoamide; arsenate co-treatment: none): -0.149
thermal stability z-score (potassium arsenate): -0.45

PIK3CB (UniProt P42338)
thermal stability z-score (lipoamide; [1]): -0.054
thermal stability z-score (lipoamide; arsenate co-treatment: none): -0.193
thermal stability z-score (potassium arsenate): -0.371

PIK3R2 (UniProt O00459)
UniProt O00459, sequence (O00459 whole entry): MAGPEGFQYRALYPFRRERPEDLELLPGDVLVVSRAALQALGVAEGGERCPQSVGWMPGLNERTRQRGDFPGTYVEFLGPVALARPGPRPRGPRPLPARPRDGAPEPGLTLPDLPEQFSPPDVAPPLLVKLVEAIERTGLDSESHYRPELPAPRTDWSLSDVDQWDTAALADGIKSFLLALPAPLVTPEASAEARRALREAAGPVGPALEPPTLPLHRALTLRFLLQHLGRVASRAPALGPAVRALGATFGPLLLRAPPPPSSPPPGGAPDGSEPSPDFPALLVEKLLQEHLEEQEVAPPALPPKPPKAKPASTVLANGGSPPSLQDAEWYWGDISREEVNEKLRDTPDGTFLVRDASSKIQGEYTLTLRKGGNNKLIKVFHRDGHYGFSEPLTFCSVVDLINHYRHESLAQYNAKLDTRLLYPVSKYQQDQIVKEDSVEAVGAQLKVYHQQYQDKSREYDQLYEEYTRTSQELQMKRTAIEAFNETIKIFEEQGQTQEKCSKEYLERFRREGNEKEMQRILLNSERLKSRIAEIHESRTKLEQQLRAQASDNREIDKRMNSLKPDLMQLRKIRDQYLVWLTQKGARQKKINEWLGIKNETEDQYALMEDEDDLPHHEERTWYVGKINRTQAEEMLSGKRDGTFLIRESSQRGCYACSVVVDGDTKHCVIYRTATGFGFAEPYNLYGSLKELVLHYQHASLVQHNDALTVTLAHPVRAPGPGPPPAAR
thermal stability z-score (lipoamide; [1]): -0.263
thermal stability z-score (lipoamide; arsenate co-treatment: none): 0.416
thermal stability z-score (potassium arsenate): -0.17

PIK3R3 (UniProt Q92569)
thermal stability z-score (lipoamide; [1]): 0.191
thermal stability z-score (lipoamide; arsenate co-treatment: none): -0.186
thermal stability z-score (potassium arsenate): 0.0593

PIK3R4 (UniProt Q99570)
thermal stability z-score (lipoamide; [1]): -0.524
thermal stability z-score (lipoamide; arsenate co-treatment: none): -0.155
thermal stability z-score (potassium arsenate): 0.184

PIKFYVE (UniProt Q9Y2I7)
thermal stability z-score (lipoamide; [1]): 0.00547
thermal stability z-score (lipoamide; arsenate co-treatment: none): -0.0522
thermal stability z-score (potassium arsenate): -0.189

PIN1 (UniProt Q13526)
thermal stability z-score (lipoamide; [1]): 0.355
thermal stability z-score (lipoamide; arsenate co-treatment: none): 0.305
thermal stability z-score (potassium arsenate): 0.757

PIN4 (UniProt Q9Y237)
UniProt Q9Y237, sequence (Q9Y237 whole entry): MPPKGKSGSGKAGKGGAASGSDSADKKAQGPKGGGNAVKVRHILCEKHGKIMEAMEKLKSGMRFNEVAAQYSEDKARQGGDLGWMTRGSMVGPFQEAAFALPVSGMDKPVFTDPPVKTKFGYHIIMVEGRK
thermal stability z-score (lipoamide; [1]): 0.199
thermal stability z-score (lipoamide; arsenate co-treatment: none): -0.0862
thermal stability z-score (potassium arsenate): -0.422

PINX1 (UniProt Q96BK5)
thermal stability z-score (lipoamide; [1]): -0.717
thermal stability z-score (lipoamide; arsenate co-treatment: none): -0.225
thermal stability z-score (potassium arsenate): -2.03

PIP4K2A (UniProt P48426)
thermal stability z-score (lipoamide; [1]): 0.195
thermal stability z-score (lipoamide; arsenate co-treatment: none): 0.103
thermal stability z-score (potassium arsenate): -0.102

PIP4K2B (UniProt P78356)
thermal stability z-score (lipoamide; [1]): 0.0141
thermal stability z-score (lipoamide; arsenate co-treatment: none): 0.0907
thermal stability z-score (potassium arsenate): 0.0439

PIP4K2C (UniProt Q8TBX8)
thermal stability z-score (lipoamide; [1]): 0.0507
thermal stability z-score (lipoamide; arsenate co-treatment: none): 0.12
thermal stability z-score (potassium arsenate): 1.78

PIP5K1A (UniProt Q99755)
thermal stability z-score (lipoamide; [1]): -0.948
thermal stability z-score (lipoamide; arsenate co-treatment: none): -0.813
thermal stability z-score (potassium arsenate): 0.951

PIR (UniProt O00625)
thermal stability z-score (lipoamide; [1]): 3.16
thermal stability z-score (lipoamide; arsenate co-treatment: none): 2.76
thermal stability z-score (potassium arsenate): -1.25

PISD (UniProt Q9UG56)
thermal stability z-score (lipoamide; [1]): 0.488
thermal stability z-score (lipoamide; arsenate co-treatment: none): 0.414
thermal stability z-score (potassium arsenate): 0.0415

PITHD1 (UniProt Q9GZP4)
UniProt Q9GZP4, sequence (Q9GZP4 whole entry): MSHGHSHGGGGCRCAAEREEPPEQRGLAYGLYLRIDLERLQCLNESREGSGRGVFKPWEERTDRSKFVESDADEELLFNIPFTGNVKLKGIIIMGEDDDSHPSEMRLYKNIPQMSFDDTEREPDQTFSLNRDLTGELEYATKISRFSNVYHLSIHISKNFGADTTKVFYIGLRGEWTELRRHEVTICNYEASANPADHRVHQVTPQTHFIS
thermal stability z-score (lipoamide; [1]): -0.537
thermal stability z-score (lipoamide; arsenate co-treatment: none): 0.337
thermal stability z-score (potassium arsenate): 0.158

PITPNA (UniProt Q00169)
thermal stability z-score (lipoamide; [1]): 0.386
thermal stability z-score (lipoamide; arsenate co-treatment: none): 0.434
thermal stability z-score (potassium arsenate): -0.787

PITPNB (UniProt P48739)
thermal stability z-score (lipoamide; [1]): -0.0644
thermal stability z-score (lipoamide; arsenate co-treatment: none): 0.129
thermal stability z-score (potassium arsenate): -1.18

PITPNC1 (UniProt Q9UKF7)
thermal stability z-score (lipoamide; [1]): -0.545
thermal stability z-score (lipoamide; arsenate co-treatment: none): -0.37
thermal stability z-score (potassium arsenate): -0.255

PITRM1 (UniProt Q5JRX3)
UniProt Q5JRX3, sequence (Q5JRX3 whole entry): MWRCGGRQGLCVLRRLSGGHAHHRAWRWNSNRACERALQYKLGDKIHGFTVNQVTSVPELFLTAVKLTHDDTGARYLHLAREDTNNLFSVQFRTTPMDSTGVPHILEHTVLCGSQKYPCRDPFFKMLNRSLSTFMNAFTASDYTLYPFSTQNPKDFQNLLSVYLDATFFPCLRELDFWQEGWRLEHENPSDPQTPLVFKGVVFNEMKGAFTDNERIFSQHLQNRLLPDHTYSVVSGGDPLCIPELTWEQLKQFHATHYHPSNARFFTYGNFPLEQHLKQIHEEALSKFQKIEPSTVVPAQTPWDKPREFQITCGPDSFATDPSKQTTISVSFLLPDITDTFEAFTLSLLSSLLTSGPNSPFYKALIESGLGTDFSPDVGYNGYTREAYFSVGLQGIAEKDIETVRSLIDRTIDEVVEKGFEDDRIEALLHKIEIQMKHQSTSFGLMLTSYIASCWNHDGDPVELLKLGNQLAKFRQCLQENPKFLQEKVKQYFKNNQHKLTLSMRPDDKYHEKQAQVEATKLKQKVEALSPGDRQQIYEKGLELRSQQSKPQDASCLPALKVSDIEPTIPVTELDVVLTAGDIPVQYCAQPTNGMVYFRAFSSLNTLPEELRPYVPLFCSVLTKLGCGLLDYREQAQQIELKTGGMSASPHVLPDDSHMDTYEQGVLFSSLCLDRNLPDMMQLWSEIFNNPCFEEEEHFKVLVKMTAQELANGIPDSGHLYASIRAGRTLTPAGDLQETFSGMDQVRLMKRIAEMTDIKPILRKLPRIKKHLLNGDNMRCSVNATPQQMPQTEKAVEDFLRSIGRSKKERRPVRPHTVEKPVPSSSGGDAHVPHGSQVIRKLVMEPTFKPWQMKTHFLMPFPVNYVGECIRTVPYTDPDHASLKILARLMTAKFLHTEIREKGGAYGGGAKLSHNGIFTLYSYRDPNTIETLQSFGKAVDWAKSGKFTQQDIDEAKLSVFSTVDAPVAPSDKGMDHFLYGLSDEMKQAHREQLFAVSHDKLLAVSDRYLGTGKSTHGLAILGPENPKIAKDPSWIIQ
thermal stability z-score (lipoamide; [1]): 0.579
thermal stability z-score (lipoamide; arsenate co-treatment: none): 0.327
thermal stability z-score (potassium arsenate): 2.58

PITX1 (UniProt P78337)
thermal stability z-score (lipoamide; [1]): 0.0195
thermal stability z-score (lipoamide; arsenate co-treatment: none): -0.0855
thermal stability z-score (potassium arsenate): 0.027

PJA2 (UniProt O43164)
thermal stability z-score (lipoamide; [1]): -0.202
thermal stability z-score (lipoamide; arsenate co-treatment: none): -0.163
thermal stability z-score (potassium arsenate): -3.43

PKD2 (UniProt Q13563)
UniProt Q13563, sequence (Q13563 whole entry): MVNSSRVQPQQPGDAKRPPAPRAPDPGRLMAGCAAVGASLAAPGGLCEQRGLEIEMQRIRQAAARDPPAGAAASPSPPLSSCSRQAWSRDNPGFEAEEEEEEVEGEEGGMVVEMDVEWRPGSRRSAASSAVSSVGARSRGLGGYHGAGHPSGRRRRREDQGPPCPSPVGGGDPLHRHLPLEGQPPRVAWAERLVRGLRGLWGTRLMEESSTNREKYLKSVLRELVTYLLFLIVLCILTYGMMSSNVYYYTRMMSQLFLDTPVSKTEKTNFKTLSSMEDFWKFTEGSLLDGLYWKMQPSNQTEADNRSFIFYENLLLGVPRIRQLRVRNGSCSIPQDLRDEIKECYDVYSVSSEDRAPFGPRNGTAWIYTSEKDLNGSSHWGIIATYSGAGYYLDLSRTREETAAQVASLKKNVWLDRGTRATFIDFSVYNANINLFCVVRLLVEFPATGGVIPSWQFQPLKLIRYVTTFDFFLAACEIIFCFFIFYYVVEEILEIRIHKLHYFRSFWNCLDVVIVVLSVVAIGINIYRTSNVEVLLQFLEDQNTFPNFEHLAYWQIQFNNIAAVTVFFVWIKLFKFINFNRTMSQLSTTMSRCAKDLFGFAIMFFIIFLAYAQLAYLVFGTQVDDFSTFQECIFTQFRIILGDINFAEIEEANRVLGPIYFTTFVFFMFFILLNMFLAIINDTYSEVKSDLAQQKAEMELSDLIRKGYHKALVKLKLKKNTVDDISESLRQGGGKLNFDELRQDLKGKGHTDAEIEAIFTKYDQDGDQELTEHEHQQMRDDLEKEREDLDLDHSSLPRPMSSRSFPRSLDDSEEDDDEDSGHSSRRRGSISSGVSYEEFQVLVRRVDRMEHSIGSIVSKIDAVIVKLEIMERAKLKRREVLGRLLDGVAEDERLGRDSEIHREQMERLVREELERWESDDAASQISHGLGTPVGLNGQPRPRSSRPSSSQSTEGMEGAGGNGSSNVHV
thermal stability z-score (lipoamide; [1]): 0.277
thermal stability z-score (lipoamide; arsenate co-treatment: none): 0.13
thermal stability z-score (potassium arsenate): 0.16

PKM (UniProt P14618)
thermal stability z-score (lipoamide; [1]): 0.109
thermal stability z-score (lipoamide; arsenate co-treatment: none): 0.0166
thermal stability z-score (potassium arsenate): -0.166

PKMYT1 (UniProt Q99640)
thermal stability z-score (lipoamide; [1]): -0.143
thermal stability z-score (lipoamide; arsenate co-treatment: none): -0.144
thermal stability z-score (potassium arsenate): -0.0435

PKN1 (UniProt Q16512)
thermal stability z-score (lipoamide; [1]): -0.436
thermal stability z-score (lipoamide; arsenate co-treatment: none): -0.52
thermal stability z-score (potassium arsenate): -0.513

PKN2 (UniProt Q16513)
thermal stability z-score (lipoamide; [1]): 0.0683
thermal stability z-score (lipoamide; arsenate co-treatment: none): 0.467
thermal stability z-score (potassium arsenate): 0.144
